Measurements from paper PMC7572570 (Clinical cancer research : an official journal of the …, 2020).
“And” between values parts separate entries of the source, which are not always exact repeats. Equal entries are not always repeated. Where two headings read alike, the source gives them in different places.

Tests used:
[1] = test system: select advanced solid tumors or hematologic malignancies; test: Treatment duration and antitumor activity; assay type: in vivo, human; conditions: all cohorts, heavily pre-treated population with liver dysfunction
[2] = in vivo
[3] = population PK analysis in patients with CTCL and PTCL; cited from earlier work
[4] = clinical; conditions: human, plasma
[5] = Safety, dose-limiting toxicity and treatment-emergent adverse events
[6] = mild hepatic impairment 14 mg/m^2 vs normal 14 mg/m^2
[7] = moderate hepatic impairment 7 mg/m^2 vs normal 14 mg/m^2
[8] = patients who did not experience a DLT
[9] = severe hepatic impairment 5 mg/m^2 vs normal 14 mg/m^2
[10] = the two patients who had DLTs (individual values)
[11] = Severe (D) n=6, 5 mg/m^2, treatment-related TEAE, Cycle 1
[12] = Total n=31, all cohorts, treatment-related TEAE, Cycle 1

C/C=C1\NC(=O)[C@H]2CSSCC/C=C/[C@H](CC(=O)N[C@H](C(C)C)C(=O)N2)OC(=O)[C@H](C(C)C)NC1=O [romidepsin]
stable disease as best clinical response [1]: 12 patients | plasma concentrations at last time point (48 hours after initiation of the infusion): still quantifiable at the 48-hour time point | T1/2 (terminal half-life) (Mild Cohort B, 14 mg/m^2 IV, geometric mean ± SD): 13.55±1.41 (7) hr | change of clearance with hepatic function (compared to the normal hepatic function cohort): clearance decreased with worsening hepatic function | geometric mean AUCINF as % of normal hepatic function cohort [6]: ~144% | geometric mean Cmax as % of normal hepatic function cohort [6]: approximately 115% | geometric mean AUCINF as % of normal hepatic function cohort [7]: 114% | geometric mean Cmax as % of normal hepatic function cohort [7]: 96% | dose-normalized AUCINF (AUCINF/D), range [8]: 29.9 to 507.4 ng·h/mL/mg | dose-normalized Cmax (Cmax/D), range [8]: 7.3 to 84.6 ng/mL/mg | time at which plasma concentrations reached a plateau (post infusion initiation (first sample collected), 4-hour IV infusion): approximately 1 hour | geometric mean AUCINF as % of normal hepatic function cohort [9]: 116% | geometric mean Cmax as % of normal hepatic function cohort [9]: approximately 95% | clearance [10]: 6.8 L/h | dose-normalized AUCINF (AUCINF/D) [10]: 192.4 ng·h/mL/mg and 146.6 ng·h/mL/mg | dose-normalized Cmax (Cmax/D) [10]: 32.1 ng/mL/mg and 40.5 ng/mL/mg | Alkaline phosphatase increased, Any Grade ([2]; human): 1 (3%) n (%) | Anorexia, Any Grade ([2]; human): 11 (35%) n (%) | ECG changes (QT, ST-T changes), number of patients ([2]; human): 4 | ECG changes (QT, ST-T changes), patients ([2]; human): 23% | Aspartate aminotransferase increased, Any Grade ([2]; human, 28 day): 1 (3%) n (%) | Asthenia, Any Grade ([2]; human, 28 day): 3 (10%) n (%) | Bradycardia, Any Grade ([2]; human, 28 day): 1 (3%) n (%) | Creatinine increased, Any Grade ([2]; human, 28 day): 2 (6%) n (%) | aPTT increased, Any Grade ([2]; human, 28 day): 1 (3%) n (%) | decreased white blood cell counts, all grade treatment-emergent adverse event ([2]; human, 28 day): 55% | subjects who discontinued before the end of Cycle 1 due to an adverse event ([2]; human, 28 day): 3 | vomiting, all grade treatment-emergent adverse event ([2]; human, 28 day): 42% | Abdominal distension, Any Grade ([2]; human, 28 days): 1 (3%) n (%) | Abdominal pain, Any Grade ([2]; human, 28 days): 1 (3%) n (%) | Anemia, Any Grade ([2]; human, 28 days): 9 (29%) n (%) | Anemia, Grade 3 or 4 ([2]; human, 28 days): 1 (3%) n (%) | Diarrhea, Any Grade ([2]; human, 28 days): 2 (6%) n (%) | Dizziness, Any Grade ([2]; human, 28 days): 2 (6%) n (%) | Dry mouth, Any Grade ([2]; human, 28 days): 1 (3%) n (%) | Dry skin, Any Grade ([2]; human, 28 days): 1 (3%) n (%) | Dysgeusia, Any Grade ([2]; human, 28 days): 3 (10%) n (%) | Dyspepsia, Any Grade ([2]; human, 28 days): 1 (3%) n (%) | Fatigue, Any Grade ([2]; human, 28 days): 13 (42%) n (%) | Fatigue, Grade 3 or 4 ([2]; human, 28 days): 2 (6%) n (%) | Gastric haemorrhage, Any Grade ([2]; human, 28 days): 1 (3%) n (%) | Gastric haemorrhage, Grade 3 or 4 ([2]; human, 28 days): 1 (3%) n (%) | Generalized pain, Any Grade ([2]; human, 28 days): 1 (3%) n (%) | Glossodynia, Any Grade ([2]; human, 28 days): 1 (3%) n (%) | Headache, Any Grade ([2]; human, 28 days): 4 (13%) n (%) | Hypercalcemia, Any Grade ([2]; human, 28 days): 1 (3%) n (%) | Hyperuricemia, Any Grade ([2]; human, 28 days): 1 (3%) n (%) | Hypoalbuminemia, Any Grade ([2]; human, 28 days): 3 (10%) n (%) | Hypocalcemia, Any Grade ([2]; human, 28 days): 1 (3%) n (%) | Hypoglycemia, Any Grade ([2]; human, 28 days): 1 (3%) n (%) | Hypokalemia, Any Grade ([2]; human, 28 days): 1 (3%) n (%) | Hypomagnesmia, Any Grade ([2]; human, 28 days): 1 (3%) n (%) | Hyponatremia, Any Grade ([2]; human, 28 days): 4 (13%) n (%) | Hypotension, Any Grade ([2]; human, 28 days): 1 (3%) n (%) | Hypotension, Grade 3 or 4 ([2]; human, 28 days): 1 (3%) n (%) | Muscle cramping, Any Grade ([2]; human, 28 days): 1 (3%) n (%) | Nausea, Any Grade ([2]; human, 28 days): 21 (68%) n (%) | Nausea, Grade 3 or 4 ([2]; human, 28 days): 2 (6%) n (%) | Peripheral neuropathy, Any Grade ([2]; human, 28 days): 2 (6%) n (%) | Photophobia, Any Grade ([2]; human, 28 days): 1 (3%) n (%) | QTc prolongation, Any Grade ([2]; human, 28 days): 7 (23%) n (%) | Tachycardia, Any Grade ([2]; human, 28 days): 2 (6%) n (%) | Thrombocytopenia, Any Grade ([2]; human, 28 days): 16 (52%) n (%) | Thrombocytopenia, Grade 3 or 4 ([2]; human, 28 days): 1 (3%) n (%) | Vomiting, Any Grade ([2]; human, 28 days): 13 (42%) n (%) | WBC decrease, Any Grade ([2]; human, 28 days): 17 (55%) n (%) | WBC decrease, Grade 3 or 4 ([2]; human, 28 days): 7 (23%) n (%) | Weight loss, Any Grade ([2]; human, 28 days): 1 (3%) n (%) | Torsades de Pointes or other treatment-emergent arrhythmia [2]: no cases of Torsades de Pointes or other treatment-emergent arrhythmia | dose-limiting toxicity [2]: without DLT | dose-limiting toxicity, patients [2]: two patients | effect of mild hepatic impairment on exposure [3]: no effect on romidepsin exposure | clearance ([4]; intravenous, clearance, range, patients who did not experience a DLT): 33.3 to 557 mL/min | half-life ([4]; iv, 5 mg/m2): 14.5 ± 4.25 h | clearance ([4]; iv, 5 mg/m2, Cl (systemic clearance), Severe Cohort D, 5 mg/m^2 IV, geometric mean ± SD): 80 mL/min | Vd ([4]; iv, 5 mg/m2, V (volume of distribution), Severe Cohort D, 5 mg/m^2 IV, geometric mean ± SD): 15.4 ± 5.1 L | half-life ([4]; iv, 7 mg/m2): 14.1 ± 3.88 h | clearance ([4]; iv, 7 mg/m2, Cl (systemic clearance), Moderate Cohort C, 7 mg/m^2 IV, geometric mean ± SD): 115 mL/min | Vd ([4]; iv, 7 mg/m2, V (volume of distribution), Moderate Cohort C, 7 mg/m^2 IV, geometric mean ± SD): 19 ± 6.4 L | half-life ([4]; iv, 14 mg/m2): 11.1 ± 2.1 h | clearance ([4]; iv, 14 mg/m2, Cl (systemic clearance), Mild Cohort B, 14 mg/m^2 IV, geometric mean ± SD): 160 mL/min | clearance ([4]; iv, 14 mg/m2, Cl (systemic clearance), Normal Cohort A, 14 mg/m^2 IV, geometric mean ± SD): 270 mL/min | Vd ([4]; iv, 14 mg/m2, V (volume of distribution), Mild Cohort B, 14 mg/m^2 IV, geometric mean ± SD): 17.1 ± 2.5 L | Vd ([4]; iv, 14 mg/m2, V (volume of distribution), Normal Cohort A, 14 mg/m^2 IV, geometric mean ± SD): 20.7 ± 12.5 L | Flu-like symptoms (malaise), Any Grade [5, 11]: 1 (17%) n (%) | Infections, Any Grade [5, 11]: 1 (17%) n (%) | Flu-like symptoms (malaise), Any Grade [5, 12]: 3 (10%) n (%) | Infections, Any Grade [5, 12]: 4 (13%) n (%) | Infections, Grade 3 or 4 [5, 12]: 1 (3%) n (%) | subjects who discontinued before the end of Cycle 1 due to death ([5]; all cohorts, n): 5
